Reference: patent US20250382344A1, “Soluble GLP1/GIP/NPY2 Receptor Triple Agonists” (Boehringer Ingelheim International GmH, priority 2024, published 2025)
pEC50: −log10 of the molar value. Like-named read-outs stand apart in the source and are kept apart here.

Tests used:
[1] = target: T1, hGIPR (Homo sapiens, UniProt P48546); assay: hGIPR CreLuc assay in 0.5% and 100% plasma (CHO CRE-luciferase reporter cells); type: cell-based
T1 construct: expressed in transfected cells; host or cells: CHO CRE-luciferase reporter cells
T1 sequence (P48546 22-466): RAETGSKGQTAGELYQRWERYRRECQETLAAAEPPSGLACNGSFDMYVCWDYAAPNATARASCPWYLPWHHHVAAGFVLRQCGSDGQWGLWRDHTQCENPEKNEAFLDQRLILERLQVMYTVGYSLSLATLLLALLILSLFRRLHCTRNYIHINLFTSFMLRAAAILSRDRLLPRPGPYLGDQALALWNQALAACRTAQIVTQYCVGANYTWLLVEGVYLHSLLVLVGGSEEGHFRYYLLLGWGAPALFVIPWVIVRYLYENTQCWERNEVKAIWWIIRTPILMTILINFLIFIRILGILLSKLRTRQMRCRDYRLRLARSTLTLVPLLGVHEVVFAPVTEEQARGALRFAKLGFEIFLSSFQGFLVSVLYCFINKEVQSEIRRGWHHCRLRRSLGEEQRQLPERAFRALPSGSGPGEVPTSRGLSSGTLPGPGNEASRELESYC

[2] = Solubility in 0.1 M phosphate buffer at pH 7; type: physicochemical; conditions: 0.1 M phosphate buffer at pH 7, 10 mg/mL final peptide concentration, shaking 2 hours at room temperature, peptides as TFA-salts; measured sample pH 6.5-7.0
[3] = 0.5% human plasma, read-out: hGIPR 0.5% hP
[4] = 100% human plasma, read-out: hGIPR 100% hP

SMILES	pEC50 [1, 3]	solubility at 2 h [2] [µg/mL]	pEC50 [1, 4]
CC[C@H](C)[C@H](NC(=O)[C@H](CC(C)C)NC(=O)[C@H](Cc1c[nH]cn1)NC(=O)[C@H](CCCNC(=N)N)NC(=O)[C@@H](NC(=O)[C@H](Cc1ccccc1)NC(=O)[C@H](C)NC(=O)C(C)(C)NC(=O)[C@H](CCC(N)=O)NC(=O)[C@H](C)NC(=O)[C@H](CCC(N)=O)NC(=O)[C@H](CCCCN)NC(=O)[C@H](CCC(=O)O)NC(=O)[C@H](CC(C)C)NC(=O)C(C)(C)NC(=O)[C@@H](NC(=O)[C@H](CO)NC(=O)[C@H](Cc1ccc(O)cc1)NC(=O)[C@H](CC(=O)O)NC(=O)[C@H](CO)NC(=O)[C@@H](NC(=O)[C@H](Cc1ccccc1)NC(=O)[C@@H](NC(=O)CNC(=O)[C@H](CCC(=O)O)NC(=O)C(C)(C)NC(=O)[C@@H](N)Cc1ccc(O)cc1)[C@@H](C)O)[C@@H](C)O)[C@@H](C)CC)C(C)C)C(=O)N[C@@H](CC(N)=O)C(=O)N[C@@H](CCCCNC(=O)[C@@H](N)CCCCNC(=O)CC[C@H](NC(=O)CC[C@H](NC(=O)CC[C@H](NC(=O)CC[C@H](NC(=O)CC[C@H](NC(=O)CC[C@H](NC(=O)CCCCCCCCCCCCCCCCC(=O)O)C(=O)O)C(=O)O)C(=O)O)C(=O)O)C(=O)O)C(=O)O)C(=O)N[C@H](C(=O)N[C@H](C(=O)N[C@@H](CCCNC(=N)N)C(=O)N[C@@H](CCC(N)=O)C(=O)N[C@@H](CCCNC(=N)N)C(=O)N[C@@H](Cc1ccc(O)cc1)C(N)=O)[C@@H](C)O)[C@@H](C)CC [Compound 66, Y-Aib-E-G-T-F-T-S-D-Y-S-I-Aib-L-E-K-Q-A-Q-Aib-A-F-V-R-H-L-I-N-K(1,3)-I-T-R-Q-R-Y-NH2.C18DA-gGlu-gGlu-gGlu-gGlu-gGlu-gGlu-eLys(1,2)]	9.70	5000	–
CC[C@H](C)[C@H](NC(=O)[C@H](CC(C)C)NC(=O)[C@H](Cc1c[nH]cn1)NC(=O)[C@H](CCCNC(=N)N)NC(=O)[C@@H](NC(=O)[C@H](Cc1ccccc1)NC(=O)[C@H](C)NC(=O)C(C)(C)NC(=O)[C@H](CCC(N)=O)NC(=O)[C@H](C)NC(=O)[C@H](CCC(N)=O)NC(=O)[C@H](CCCCN)NC(=O)[C@H](CCC(=O)O)NC(=O)[C@H](CC(C)C)NC(=O)C(C)(C)NC(=O)[C@@H](NC(=O)[C@H](CO)NC(=O)[C@H](Cc1ccc(O)cc1)NC(=O)[C@H](CC(=O)O)NC(=O)[C@H](CO)NC(=O)[C@@H](NC(=O)[C@H](Cc1ccccc1)NC(=O)[C@@H](NC(=O)CNC(=O)[C@H](CCC(=O)O)NC(=O)C(C)(C)NC(=O)[C@@H](N)Cc1ccc(O)cc1)[C@@H](C)O)[C@@H](C)O)[C@@H](C)CC)C(C)C)C(=O)N[C@@H](CC(N)=O)C(=O)N[C@@H](CCCCNC(=O)[C@@H](N)CCCCNC(=O)CC[C@H](NC(=O)CC[C@H](NC(=O)CC[C@H](NC(=O)CC[C@H](NC(=O)CC[C@H](NC(=O)CC[C@H](NC(=O)CCCCCCCCCCCCCCCCC(=O)O)C(=O)O)C(=O)O)C(=O)O)C(=O)O)C(=O)O)C(=O)O)C(=O)NC(C)(C)C(=O)N[C@H](C(=O)N[C@@H](CCCNC(=N)N)C(=O)N(C)[C@@H](CCC(N)=O)C(=O)N[C@@H](CCCNC(=N)N)C(=O)N[C@@H](Cc1ccc(O)cc1)C(N)=O)[C@@H](C)O [Compound 17, Y-Aib-E-G-T-F-T-S-D-Y-S-I-Aib-L-E-K-Q-A-Q-Aib-A-F-V-R-H-L-I-N-K(1,3)-Aib-T-R-NMeQ-R-Y-NH2.C18DA-gGlu-gGlu-gGlu-gGlu-gGlu-gGlu-eLys(1,2)]	9.70	4000	8.70
CC[C@H](C)[C@H](NC(=O)[C@H](CC(C)C)NC(=O)[C@H](Cc1c[nH]cn1)NC(=O)[C@H](CCCNC(=N)N)NC(=O)[C@@H](NC(=O)[C@H](Cc1ccccc1)NC(=O)[C@H](C)NC(=O)C(C)(C)NC(=O)[C@H](CCC(N)=O)NC(=O)[C@H](C)NC(=O)[C@H](CCC(N)=O)NC(=O)[C@H](CCCCN)NC(=O)[C@H](CCC(=O)O)NC(=O)[C@H](CC(C)C)NC(=O)C(C)(C)NC(=O)[C@@H](NC(=O)[C@H](CO)NC(=O)[C@H](Cc1ccc(O)cc1)NC(=O)[C@H](CC(=O)O)NC(=O)[C@H](CO)NC(=O)[C@@H](NC(=O)[C@H](Cc1ccccc1)NC(=O)[C@@H](NC(=O)CNC(=O)[C@H](CCC(=O)O)NC(=O)C(C)(C)NC(=O)[C@@H](N)Cc1ccc(O)cc1)[C@@H](C)O)[C@@H](C)O)[C@@H](C)CC)C(C)C)C(=O)N[C@@H](CC(N)=O)C(=O)N[C@@H](CCCCNC(=O)CC[C@H](NC(=O)[C@@H](N)CCCCNC(=O)CC[C@H](NC(=O)CC[C@H](NC(=O)CC[C@H](NC(=O)CC[C@H](NC(=O)CC[C@H](NC(=O)CCCCCCCCCCCCCCCCCCC(=O)O)C(=O)O)C(=O)O)C(=O)O)C(=O)O)C(=O)O)C(=O)O)C(=O)NC(C)(C)C(=O)N[C@H](C(=O)N[C@@H](CCCNC(=N)N)C(=O)N[C@@H](CCC(N)=O)C(=O)N[C@@H](CCCNC(=N)N)C(=O)N[C@@H](Cc1ccc(O)cc1)C(N)=O)[C@@H](C)O [Compound 94, Y-Aib-E-G-T-F-T-S-D-Y-S-I-Aib-L-E-K-Q-A-Q-Aib-A-F-V-R-H-L-I-N-K(1,3)-Aib-T-R-Q-R-Y-NH2.C20DA-gGlu-gGlu-gGlu-gGlu-gGlu-eLys-gGlu(1,2)]	9.52	9000	–
CC[C@H](C)[C@H](NC(=O)[C@H](CC(C)C)NC(=O)[C@H](Cc1c[nH]cn1)NC(=O)[C@H](CCCNC(=N)N)NC(=O)[C@@H](NC(=O)[C@H](Cc1ccccc1)NC(=O)[C@H](C)NC(=O)C(C)(C)NC(=O)[C@H](CCC(N)=O)NC(=O)[C@H](C)NC(=O)[C@H](CCC(N)=O)NC(=O)[C@H](CCCCN)NC(=O)[C@H](CCC(=O)O)NC(=O)[C@H](CC(C)C)NC(=O)C(C)(C)NC(=O)[C@@H](NC(=O)[C@H](CO)NC(=O)[C@H](Cc1ccc(O)cc1)NC(=O)[C@H](CC(=O)O)NC(=O)[C@H](CO)NC(=O)[C@@H](NC(=O)[C@H](Cc1ccccc1)NC(=O)[C@@H](NC(=O)CNC(=O)[C@H](CCC(=O)O)NC(=O)C(C)(C)NC(=O)[C@@H](N)Cc1ccc(O)cc1)[C@@H](C)O)[C@@H](C)O)[C@@H](C)CC)C(C)C)C(=O)N[C@@H](CC(N)=O)C(=O)N[C@@H](CCCCNC(=O)[C@@H](N)CCCCNC(=O)CC[C@H](NC(=O)CC[C@H](NC(=O)CC[C@H](NC(=O)CC[C@H](NC(=O)CC[C@H](NC(=O)CC[C@H](NC(=O)CC[C@H](NC(=O)CCCCCCCCCCCCCCCCCCC(=O)O)C(=O)O)C(=O)O)C(=O)O)C(=O)O)C(=O)O)C(=O)O)C(=O)O)C(=O)NC(C)(C)C(=O)N[C@H](C(=O)N[C@@H](CCCNC(=N)N)C(=O)N[C@@H](CCC(N)=O)C(=O)N[C@@H](CCCNC(=N)N)C(=O)N[C@@H](Cc1ccc(O)cc1)C(N)=O)[C@@H](C)O [Compound 35, Y-Aib-E-G-T-F-T-S-D-Y-S-I-Aib-L-E-K-Q-A-Q-Aib-A-F-V-R-H-L-I-N-K(1,3)-Aib-T-R-Q-R-Y-NH2.C20DA-gGlu-gGlu-gGlu-gGlu-gGlu-gGlu-gGlu-eLys(1,2)]	9.15	5200	–
CC[C@H](C)[C@H](NC(=O)[C@H](CC(C)C)NC(=O)[C@H](Cc1c[nH]cn1)NC(=O)[C@H](CCCNC(=N)N)NC(=O)[C@@H](NC(=O)[C@H](Cc1ccccc1)NC(=O)[C@H](C)NC(=O)C(C)(C)NC(=O)[C@H](CCC(N)=O)NC(=O)[C@H](C)NC(=O)[C@H](CCC(N)=O)NC(=O)[C@H](CCC(=O)O)NC(=O)[C@H](CC(=O)O)NC(=O)[C@H](CC(C)C)NC(=O)C(C)(C)NC(=O)[C@@H](NC(=O)[C@H](CO)NC(=O)[C@H](Cc1ccc(O)cc1)NC(=O)[C@H](CC(=O)O)NC(=O)[C@H](CO)NC(=O)[C@@H](NC(=O)[C@H](Cc1ccccc1)NC(=O)[C@@H](NC(=O)CNC(=O)[C@H](CCC(=O)O)NC(=O)C(C)(C)NC(=O)[C@@H](N)Cc1ccc(O)cc1)[C@@H](C)O)[C@@H](C)O)[C@@H](C)CC)C(C)C)C(=O)N[C@@H](CC(N)=O)C(=O)N[C@@H](CCCCNC(=O)[C@@H](N)CCCCNC(=O)CC[C@H](NC(=O)CC[C@H](NC(=O)CC[C@H](NC(=O)CC[C@H](NC(=O)CC[C@H](NC(=O)CCCCCCCCCCCCCCCCCCC(=O)O)C(=O)O)C(=O)O)C(=O)O)C(=O)O)C(=O)O)C(=O)NC(C)(C)C(=O)N[C@H](C(=O)N[C@@H](CCCNC(=N)N)C(=O)N[C@@H](CCC(N)=O)C(=O)N[C@@H](CCCNC(=N)N)C(=O)N[C@@H](Cc1ccc(O)cc1)C(N)=O)[C@@H](C)O [Compound 138, Y-Aib-E-G-T-F-T-S-D-Y-S-I-Aib-L-D-E-Q-A-Q-Aib-A-F-V-R-H-L-I-N-K(1,3)-Aib-T-R-Q-R-Y-NH2.C20DA-gGlu-gGlu-gGlu-gGlu-gGlu-eLys(1,2)]	9.30	9300	7.94
